The text below walks through data of article PMC11956013, “Structure–Activity Relationships and Evaluation of 2-(Heteroaryl-cycloalkyl)-1H-indoles as Tauopathy Positron Emission Tomography Radiotracers” (Journal of Medicinal Chemistry, 2025).

The target in assay [1] is T1, aggregated tau (4R-tau) in PSP brain tissue homogenates (Homo sapiens, UniProt P10636).
T1 construct: from tissue
Nature of the assay: In vitro competition (Ki) assay versus [^3H]7, PSP brain tissue homogenate. The class given is binding. The conditions noted are these: radioligand [^3H]7 ∼1 nM.

Assay [2] concerns the target T2, aggregated tau (mixed 3R/4R-tau) in AD brain tissue homogenates (Homo sapiens, UniProt P10636). Nature of the assay: In vitro competition (Ki) assay versus [^3H]7, AD brain tissue homogenate. To be noted: radioligand [^3H]7 ∼1 nM. Format: binding.
Target sequence in this assay (P10636 623-695 limits assumed): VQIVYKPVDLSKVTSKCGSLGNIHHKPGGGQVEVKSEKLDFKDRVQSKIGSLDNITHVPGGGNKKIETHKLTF
The target in assay [3] is T3, GABAB(B1b/B2) Human GABA B GPCR (Homo sapiens, UniProt Q9UBS5).
T3 construct: Eurofins (Cerep) assay 4699
The experiment in a line: GABAB(B1b/B2) Human GABA B GPCR Mass Spectrometry Binding (Antagonist Ligand) Assay, Cerep, assay 4699. The conditions noted are these: Specific binding, reference compound.

Assay [4] has as its target T1, aggregated tau (4R-tau) in PSP brain tissue homogenates. The experiment in a line: In vitro competition (Ki) assay versus [^3H]8, PSP brain tissue homogenate. The conditions noted are these: radioligand [^3H]8 ∼1 nM. The class given is binding.
Assay [5] addresses T2, aggregated tau (mixed 3R/4R-tau) in AD brain tissue homogenates. The experiment in a line: In vitro competition (Ki) assay versus [^3H]8, AD brain tissue homogenate. The class given is binding. To be noted: radioligand [^3H]8 ∼1 nM.
Target sequence in this assay (P10636 623-708 limits assumed): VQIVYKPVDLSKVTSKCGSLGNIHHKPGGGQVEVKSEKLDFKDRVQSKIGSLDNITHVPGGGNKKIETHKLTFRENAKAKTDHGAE
In assay [6] the target is T4, PiB binding site on amyloid-β in AD brain tissue homogenates (Homo sapiens, UniProt P05067).
T4 construct: from tissue; host or cells: post-mortem human AD brain, middle frontal gyrus homogenate
Nature of the assay: In vitro competition (Ki) assay versus [^3H]PiB, AD brain tissue homogenate. The conditions noted are these: radioligand [^3H]PiB.

The target in another assay is N neuronal alpha7 (h) (Homo sapiens, UniProt P36544). The experiment in a line: Eurofins panel: N neuronal alpha7 (h) (antagonist radioligand).
Assay [7] addresses T2, aggregated tau (mixed 3R/4R-tau) in AD brain tissue homogenates. Nature of the assay: In vitro competition (Ki) assay versus [^3H]75, AD brain tissue homogenate. The class given is binding. The conditions noted are these: n = 3, mean ± SD.
Target sequence in this assay (P10636 623-695 limits assumed): as the sequence (P10636 623-695 limits assumed) above
In assay [8] the target is T1, aggregated tau (4R-tau) in PSP brain tissue homogenates. Nature of the assay: In vitro competition (Ki) assay versus [^3H]75, PSP brain tissue homogenate. The class given is binding. The conditions noted are these: n = 3, mean ± SD.
For assay [9], the target named is T5, aggregated tau (3R-tau) in PiD brain tissue homogenates (Homo sapiens, UniProt P10636).
T5 construct: or only 3R-tau aggregates (PiD middle frontal gyrus); from tissue; host or cells: post-mortem human PiD brain, middle frontal gyrus homogenate
The experiment in a line: In vitro competition (Ki) assay versus [^3H]75, PiD brain tissue homogenate. Format: binding. To be noted: n = 3, mean ± SD.

For assay [10], the target named is aggregated tau (4R-tau) in CBD brain tissue homogenates (Homo sapiens, UniProt P10636). The experiment in a line: In vitro competition (Ki) assay versus [^3H]75, CBD brain tissue homogenate. The class given is binding. Details: from tissue; host or cells: post-mortem human CBD brain, middle frontal gyrus homogenate.
Another assay has as its target T6, alpha1A (h) (Homo sapiens, UniProt P35348).
T6 sequence (P35348 1-466): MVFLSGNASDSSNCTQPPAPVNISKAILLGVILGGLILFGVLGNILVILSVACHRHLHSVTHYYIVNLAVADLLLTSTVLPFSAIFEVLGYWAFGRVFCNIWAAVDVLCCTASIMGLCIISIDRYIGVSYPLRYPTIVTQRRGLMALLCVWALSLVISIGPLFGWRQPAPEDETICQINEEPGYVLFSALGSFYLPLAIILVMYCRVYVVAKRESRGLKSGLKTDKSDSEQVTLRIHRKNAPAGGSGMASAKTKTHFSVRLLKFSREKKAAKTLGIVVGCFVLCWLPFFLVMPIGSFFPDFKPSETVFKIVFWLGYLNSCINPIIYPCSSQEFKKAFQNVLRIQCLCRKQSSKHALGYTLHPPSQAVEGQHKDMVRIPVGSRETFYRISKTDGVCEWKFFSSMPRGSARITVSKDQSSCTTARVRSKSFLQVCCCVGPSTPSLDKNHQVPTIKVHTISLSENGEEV
Nature of the assay: Eurofins panel: alpha1A (h) (antagonist radioligand). The conditions noted are these: reference compound, alpha1A (h).

A further assay has as its target T7, OX2 (h) (Homo sapiens, UniProt O43614).
T7 sequence (O43614 1-444): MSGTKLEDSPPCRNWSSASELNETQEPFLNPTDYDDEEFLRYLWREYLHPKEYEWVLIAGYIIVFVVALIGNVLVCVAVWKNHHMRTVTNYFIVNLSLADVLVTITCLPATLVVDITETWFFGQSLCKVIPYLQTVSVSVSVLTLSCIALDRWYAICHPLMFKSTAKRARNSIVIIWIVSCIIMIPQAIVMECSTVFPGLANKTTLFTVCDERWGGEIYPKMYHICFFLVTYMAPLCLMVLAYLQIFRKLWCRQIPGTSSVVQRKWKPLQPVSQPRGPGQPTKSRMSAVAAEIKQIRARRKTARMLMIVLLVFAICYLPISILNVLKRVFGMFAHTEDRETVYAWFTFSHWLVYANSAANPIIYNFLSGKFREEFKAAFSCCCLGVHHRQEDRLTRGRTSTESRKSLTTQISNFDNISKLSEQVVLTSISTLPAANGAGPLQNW
Nature of the assay: Eurofins panel: OX2 (h) (agonist radioligand).

The target of a further assay is mGluR5 (h) (Homo sapiens, UniProt P41594). The experiment in a line: Eurofins panel: mGluR5 (h) (agonist radioligand). The conditions noted are these: reference compound, mGluR5 (h).
Assay [11] deals with GABAA1 (h) (alpha1,beta2,gamma2) (Homo sapiens, UniProt P14867+P47870). Nature of the assay: GABAA1 (h) (alpha1,beta2,gamma2) (agonist radioligand), Eurofins assay 3051.
Assay [12] concerns the target T8, Glutamate (Non-Selective) Rat Ion Channel Glycine (Strychnine-Insensitive) (Rattus norvegicus, UniProt P35439).
T8 construct: Eurofins assay 5043
The experiment in a line: Glutamate (Non-Selective) Rat Ion Channel Glycine (Strychnine-Insensitive), Mass Spectrometry Binding, assay 5043. To be noted: Specific binding, reference compound.

[13] abbreviates: read-out: Concurrent IC50 (Specific binding), reference compound.
Setting [14] is: read-out: Concurrent Ki (Specific binding), reference compound.
[15] abbreviates: AD brain tissue homogenate, radioligand [^3H]75.
Where [16] appears, read: PSP brain tissue homogenate, radioligand [^3H]75.
Setting [17] is: PiD brain tissue homogenate, radioligand [^3H]75.
Where [18] appears, read: CBD brain tissue homogenate, radioligand [^3H]75, n = 3, mean ± SD.
Where [19] appears, read: read-out: Concurrent IC50, Specific binding.
The mark [20] stands for this setting: read-out: Concurrent Ki, Specific binding.

Where “and” joins values, the source holds several entries; their conditions need not be identical. Equal entries are not always repeated. Where two headings read alike, the source gives them in different places.

Chain of N neuronal alpha7 (h) (P36544 23-502): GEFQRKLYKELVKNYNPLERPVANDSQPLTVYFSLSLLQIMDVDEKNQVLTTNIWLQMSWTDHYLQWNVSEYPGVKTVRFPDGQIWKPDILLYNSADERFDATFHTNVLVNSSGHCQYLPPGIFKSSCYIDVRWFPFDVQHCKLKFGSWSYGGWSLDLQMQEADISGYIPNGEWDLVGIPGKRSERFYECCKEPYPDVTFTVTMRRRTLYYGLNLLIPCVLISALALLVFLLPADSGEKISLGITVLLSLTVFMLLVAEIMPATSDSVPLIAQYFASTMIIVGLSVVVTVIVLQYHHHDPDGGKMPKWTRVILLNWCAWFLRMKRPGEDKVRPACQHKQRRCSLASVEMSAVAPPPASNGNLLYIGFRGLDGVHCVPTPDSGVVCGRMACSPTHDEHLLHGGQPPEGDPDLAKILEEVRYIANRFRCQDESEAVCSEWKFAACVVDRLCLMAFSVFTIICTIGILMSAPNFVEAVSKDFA
T3 sequence (Q9UBS5 1-844 isoform Q9UBS5-2): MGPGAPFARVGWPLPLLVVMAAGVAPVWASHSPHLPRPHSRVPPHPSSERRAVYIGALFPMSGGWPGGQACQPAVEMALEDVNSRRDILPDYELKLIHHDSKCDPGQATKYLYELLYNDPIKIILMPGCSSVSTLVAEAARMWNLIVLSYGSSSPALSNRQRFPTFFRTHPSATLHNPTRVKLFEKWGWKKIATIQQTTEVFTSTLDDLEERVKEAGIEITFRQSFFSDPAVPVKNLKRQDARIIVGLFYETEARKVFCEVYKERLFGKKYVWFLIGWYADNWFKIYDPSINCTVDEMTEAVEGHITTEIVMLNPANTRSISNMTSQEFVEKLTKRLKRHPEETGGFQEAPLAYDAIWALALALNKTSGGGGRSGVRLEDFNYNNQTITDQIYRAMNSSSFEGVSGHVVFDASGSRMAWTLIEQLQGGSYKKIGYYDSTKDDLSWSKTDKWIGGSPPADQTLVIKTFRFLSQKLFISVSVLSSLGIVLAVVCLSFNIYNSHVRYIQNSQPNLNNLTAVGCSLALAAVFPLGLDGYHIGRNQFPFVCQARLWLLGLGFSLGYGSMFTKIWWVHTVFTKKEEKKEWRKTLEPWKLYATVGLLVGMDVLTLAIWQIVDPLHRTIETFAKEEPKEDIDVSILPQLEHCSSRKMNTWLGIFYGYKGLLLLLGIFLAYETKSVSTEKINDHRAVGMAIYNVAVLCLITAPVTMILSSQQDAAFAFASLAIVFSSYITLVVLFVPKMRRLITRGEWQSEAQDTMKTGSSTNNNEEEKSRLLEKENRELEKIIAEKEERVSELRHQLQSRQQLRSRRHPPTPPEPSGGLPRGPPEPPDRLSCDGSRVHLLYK
T3 sequence (O75899 42-941 partner): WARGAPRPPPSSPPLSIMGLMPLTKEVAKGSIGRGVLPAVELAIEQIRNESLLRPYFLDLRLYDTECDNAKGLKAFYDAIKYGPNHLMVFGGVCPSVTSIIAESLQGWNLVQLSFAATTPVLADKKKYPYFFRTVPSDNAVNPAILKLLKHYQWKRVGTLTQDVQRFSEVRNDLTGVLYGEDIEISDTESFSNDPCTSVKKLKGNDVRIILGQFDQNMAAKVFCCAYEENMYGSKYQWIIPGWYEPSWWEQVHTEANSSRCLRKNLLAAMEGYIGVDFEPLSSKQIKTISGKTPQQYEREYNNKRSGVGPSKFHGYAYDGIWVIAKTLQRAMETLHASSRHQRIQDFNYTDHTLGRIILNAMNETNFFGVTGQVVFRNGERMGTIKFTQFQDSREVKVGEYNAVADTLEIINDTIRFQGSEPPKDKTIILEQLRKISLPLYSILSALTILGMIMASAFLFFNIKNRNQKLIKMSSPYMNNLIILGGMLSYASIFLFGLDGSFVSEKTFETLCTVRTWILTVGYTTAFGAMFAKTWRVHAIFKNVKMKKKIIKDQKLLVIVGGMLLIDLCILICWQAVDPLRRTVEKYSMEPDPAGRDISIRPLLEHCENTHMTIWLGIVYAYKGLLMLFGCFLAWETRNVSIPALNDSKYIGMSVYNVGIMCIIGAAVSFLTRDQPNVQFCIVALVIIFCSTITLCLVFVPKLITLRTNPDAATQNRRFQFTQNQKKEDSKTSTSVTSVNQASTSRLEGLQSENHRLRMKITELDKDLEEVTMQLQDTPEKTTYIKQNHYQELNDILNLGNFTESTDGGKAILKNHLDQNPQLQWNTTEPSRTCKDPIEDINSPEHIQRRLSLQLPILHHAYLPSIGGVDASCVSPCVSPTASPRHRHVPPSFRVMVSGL
T5 sequence (P10636 1-410 isoform P10636-5): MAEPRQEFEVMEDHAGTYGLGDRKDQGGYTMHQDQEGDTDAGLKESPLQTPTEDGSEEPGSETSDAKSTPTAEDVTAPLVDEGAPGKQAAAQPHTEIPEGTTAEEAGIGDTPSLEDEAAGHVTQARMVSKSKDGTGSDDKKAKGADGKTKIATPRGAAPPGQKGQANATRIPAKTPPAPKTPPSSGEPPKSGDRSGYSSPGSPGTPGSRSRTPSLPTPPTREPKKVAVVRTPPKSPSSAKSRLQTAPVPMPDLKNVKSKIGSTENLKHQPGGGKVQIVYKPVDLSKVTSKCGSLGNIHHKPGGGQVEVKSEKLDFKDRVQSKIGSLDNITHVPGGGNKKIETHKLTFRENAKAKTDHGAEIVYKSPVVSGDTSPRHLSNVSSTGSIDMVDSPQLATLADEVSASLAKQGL
Chain of GABAA1 (h) (alpha1,beta2,gamma2) (P18507 40-475): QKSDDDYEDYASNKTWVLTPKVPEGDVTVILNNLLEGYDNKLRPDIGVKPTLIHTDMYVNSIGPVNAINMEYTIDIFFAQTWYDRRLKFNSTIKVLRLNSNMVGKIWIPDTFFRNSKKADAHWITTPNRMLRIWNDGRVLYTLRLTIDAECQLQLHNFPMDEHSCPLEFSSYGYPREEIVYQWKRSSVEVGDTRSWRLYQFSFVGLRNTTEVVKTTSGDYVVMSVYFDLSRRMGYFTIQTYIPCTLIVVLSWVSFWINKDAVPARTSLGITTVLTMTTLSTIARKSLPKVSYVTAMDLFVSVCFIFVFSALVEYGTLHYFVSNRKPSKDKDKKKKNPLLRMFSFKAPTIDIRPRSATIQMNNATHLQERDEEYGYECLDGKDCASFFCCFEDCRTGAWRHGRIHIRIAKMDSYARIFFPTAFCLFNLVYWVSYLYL
Chain of GABAA1 (h) (alpha1,beta2,gamma2) (P14867 28-456): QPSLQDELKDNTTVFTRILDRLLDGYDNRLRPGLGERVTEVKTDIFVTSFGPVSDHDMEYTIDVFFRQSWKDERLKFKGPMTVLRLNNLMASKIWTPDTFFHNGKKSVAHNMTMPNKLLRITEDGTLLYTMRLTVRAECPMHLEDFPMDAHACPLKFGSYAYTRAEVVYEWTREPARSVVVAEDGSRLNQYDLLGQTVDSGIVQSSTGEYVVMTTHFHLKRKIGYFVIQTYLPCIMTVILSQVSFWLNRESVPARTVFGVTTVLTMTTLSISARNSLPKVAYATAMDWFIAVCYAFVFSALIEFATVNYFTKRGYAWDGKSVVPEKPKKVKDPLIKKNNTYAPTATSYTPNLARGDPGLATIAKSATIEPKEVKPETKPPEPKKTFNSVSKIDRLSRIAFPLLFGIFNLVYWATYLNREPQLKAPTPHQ
Chain of GABAA1 (h) (alpha1,beta2,gamma2) (P47870 25-512): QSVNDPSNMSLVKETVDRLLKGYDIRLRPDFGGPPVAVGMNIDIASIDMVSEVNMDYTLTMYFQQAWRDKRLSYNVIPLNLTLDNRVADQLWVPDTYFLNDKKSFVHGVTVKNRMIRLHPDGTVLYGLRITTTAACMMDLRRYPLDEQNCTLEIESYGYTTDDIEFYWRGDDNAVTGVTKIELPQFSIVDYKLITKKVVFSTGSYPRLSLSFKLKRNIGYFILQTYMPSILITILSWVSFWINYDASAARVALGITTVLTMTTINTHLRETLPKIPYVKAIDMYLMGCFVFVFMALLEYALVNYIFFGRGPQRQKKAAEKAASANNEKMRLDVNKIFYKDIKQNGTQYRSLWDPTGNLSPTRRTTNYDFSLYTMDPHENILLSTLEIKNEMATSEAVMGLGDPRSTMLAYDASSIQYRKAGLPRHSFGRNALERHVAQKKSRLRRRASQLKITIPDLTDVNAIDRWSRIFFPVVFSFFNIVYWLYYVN
Chain of aggregated tau (4R-tau) in CBD brain tissue homogenates (P10636 1-441 isoform P10636-8): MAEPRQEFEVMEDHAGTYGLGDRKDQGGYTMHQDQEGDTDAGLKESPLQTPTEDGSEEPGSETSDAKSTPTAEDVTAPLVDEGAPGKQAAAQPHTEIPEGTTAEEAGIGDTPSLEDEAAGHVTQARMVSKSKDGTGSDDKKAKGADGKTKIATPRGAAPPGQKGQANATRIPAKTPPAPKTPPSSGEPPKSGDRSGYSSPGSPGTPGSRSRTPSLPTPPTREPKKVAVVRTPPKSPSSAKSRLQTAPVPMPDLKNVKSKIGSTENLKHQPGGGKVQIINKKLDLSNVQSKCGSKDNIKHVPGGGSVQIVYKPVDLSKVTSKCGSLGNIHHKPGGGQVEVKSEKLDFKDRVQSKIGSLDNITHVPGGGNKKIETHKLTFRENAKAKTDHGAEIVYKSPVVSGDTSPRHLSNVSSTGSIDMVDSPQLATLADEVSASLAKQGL
T1 sequence (P10636 1-441 isoform P10636-8): as above
T4 sequence (P05067 672-713 limits assumed): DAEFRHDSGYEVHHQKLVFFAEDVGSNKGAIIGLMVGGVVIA

For `OC1CCN(c2ncc(-c3cc4ccccc4[nH]3)cn2)CC1` [Compound 52, 1-(5-(1H-Indol-2-yl)pyrimidin-2-yl)piperidin-4-ol], the results for the Ki in assay [1] and in [2] were 24 nM and 11 nM, respectively.
Consider `CCOC(OCC)P(=O)(O)CCCNCc1ccc(Cl)c(Cl)c1` [CGP 52432], for which, in [3], the nH turned out to be 0.6729. Also, in assay [3] (read-out: Concurrent IC50), the IC50 is 40.7 nM. In addition, the Ki in assay [3] (read-out: Concurrent Ki) was found to be 33.9 nM.
For the compound `N#Cc1ccc2cc(-c3cnc(N4CC(O)C(F)C4)nc3)[nH]c2c1` (stereo not shown) [Compound 24, 2-(2-(3-Fluoro-4-hydroxypyrrolidin-1-yl)pyrimidin-5-yl)-1H-indole-6-carbonitrile], the Ki came to 76 nM in [4], 129 nM in assay [1], 74 nM in [5] and 120 nM in assay [2].
As for `Fc1ccc2cc(-c3ccc(N4CCCCC4)nc3)[nH]c2c1` [Compound 45, 6-Fluoro-2-(6-(piperidin-1-yl)pyridin-3-yl)-1H-indole], affinity in assay [6] was put at a Ki of 70 nM.
`Fc1ccc2cc(-c3ncc(N4CCOCC4)cc3F)[nH]c2c1` [Compound 104, 4-(5-Fluoro-6-(6-fluoro-1H-indol-2-yl)pyridin-3-yl)morpholine]: the Ki in assay [4] worked out at 20 nM; in [5], 17 nM.
For `Fc1ccc2cc(-c3cnc(N4CCOCC4)cc3F)[nH]c2c1` [Compound 88, 4-(4-Fluoro-5-(6-fluoro-1H-indol-2-yl)pyridin-2-yl)morpholine] the same measures were 12 nM and 11 nM.
Turning to `Clc1ccc(C2CC3CCC2N3)cn1` (racemic) [(±)epibatidine], the IC50 on N neuronal alpha7 (h) (setting [13]) came to 145 nM. Further, the Ki at N neuronal alpha7 (h) (setting [14]) amounted to 127 nM. The “nH, Specific binding” value on N neuronal alpha7 (h) (reference compound) is recorded as 1.959.
Regarding `CNc1ccc(/C=C/C=C/c2nc3ccc(OCC(O)CF)cc3s2)cn1` (stereo not shown) [Compound 3, florzolotau], the Ki is ~86 nM and 86 nM in assay [7] (setting [15]); 123 ± 7 nM in assay [8] (setting [16]); 124 ± 3 nM in [9] (setting [17]); 106 ± 6 nM in assay [10] (setting [18]).
Regarding `COc1cccc(OC)c1OCCNCC1COc2ccccc2O1` (stereo not shown) [WB 4101], at alpha1A (h) (setting [19]), the IC50 turned out to be 0.378 nM. Moreover, at alpha1A (h) (setting [20]), the inhibition constant (Ki) was 0.189 nM. Moreover, the “nH, Specific binding” value at alpha1A (h) is given as 1.2607.
Regarding `Fc1ccc2cc(-c3ccc(N4CCOCC4)nc3)[nH]c2c1` [Compound 46, 4-(5-(6-Fluoro-1H-indol-2-yl)pyridin-2-yl)morpholine], the Ki in [6] was determined as 53 nM.
For the compound `Cn1c(-c2cnc(N3CCOCC3)nc2)cc2ccc(F)cc21` [Compound 109, 4-(5-(6-Fluoro-1-methyl-1H-indol-2-yl)pyrimidin-2-yl)morpholine], the Ki amounted to 32 nM in [1] and 22 nM in assay [2].
In the case of orexin-B, the IC50 at OX2 (h) (setting [13]) is 0.198 nM. For the same compound, the Ki on OX2 (h) (setting [14]) was determined as 0.182 nM. The “nH, Specific binding” value at OX2 (h) (reference compound) stood at 0.7675.
As for `N[C@@H](Cn1oc(=O)[nH]c1=O)C(=O)O` [L-Quisqualate], the IC50 at mGluR5 (h) (setting [19]) was found to be 42.6 nM. Besides, the Ki on mGluR5 (h) (setting [20]) turned out to be 11.1 nM. For the same compound, on mGluR5 (h), the “nH, Specific binding” value is on record as 1.174.
In the case of `Nc1c(F)ccc2cnc(-n3ccc4ccncc43)cc12` [Compound 4, florquinitau], the Ki is 240 ± 6 nM in assay [7] (setting [15]), 780 ± 32 nM in assay [8] (setting [16]), 656 ± 36 nM in assay [9] (setting [17]) and 888 ± 32 nM in assay [10] (setting [18]).
In the case of `OC1CCN(c2ncc(-c3cc4cc(F)ccc4o3)cn2)CC1` [Compound 49, 1-(5-(5-Fluorobenzofuran-2-yl)pyrimidin-2-yl)piperidin-4-ol], the inhibition constant Ki was found to be 91 nM in assay [1] and 45 nM in [2].
For `OC1CN(c2ncc(-c3cc4ccccc4[nH]3)cn2)CC1F` (stereo not shown) [Compound 28, 1-(5-(1H-Indol-2-yl)pyrimidin-2-yl)-4-fluoropyrrolidin-3-ol], the Ki came to 31 nM in [4], 32 nM in assay [1], 34 nM in [5] and 39 nM in assay [2].
On to `OC1CCN(c2ncc(-c3cc4cc(F)ccc4[nH]3)cn2)CC1` [Compound 53, 1-(5-(5-Fluoro-1H-indol-2-yl)pyrimidin-2-yl)piperidin-4-ol], for which the Ki in assay [1] turned out to be 20 nM; in [2] it was 21 nM.
Consider `NCc1cc(=O)[nH]o1` [muscimol], for which, in [11], the IC50 was 59.1 nM and the Ki turned out to be 39.4 nM. In addition, the nH in assay [11] (Specific binding, reference compound) worked out at 0.6998.
Regarding `Fc1ccc(-c2ccc3c(c2)[nH]c2ccncc23)cn1` [Compound 1, flortaucipir], the Ki was determined as 1480 ± 53 nM in assay [7] (AD tissue, +10 μM Ro-41-1040 (MAO-A inhibitor) and 10 μM deprenyl (MAO-B inhibitor)); 1860 ± 39 nM in assay [8] (PSP tissue, +10 μM Ro-41-1040 (MAO-A inhibitor) and 10 μM deprenyl (MAO-B inhibitor)); 1490 ± 26 nM in assay [9] (PiD tissue, +10 μM Ro-41-1040 (MAO-A inhibitor) and 10 μM deprenyl (MAO-B inhibitor)); 2130 ± 58 nM in [10].
For `OCC1CCN(c2ccc(-c3cc4cc(O)ccc4[nH]3)c(F)n2)CC1` [Compound 5], the Ki in assay [7] (setting [15]) is 1210 ± 47 nM; in [8] (setting [16]) it was 566 ± 42 nM; in assay [9] (setting [17]), 575 ± 36 nM; in assay [10] (setting [18]) it was 572 ± 32 nM.
The compound `O=C(O)c1cc(=O)c2c(Cl)cc(Cl)cc2[nH]1` [5,7 dichlorokynurenic acid] came in with a nH in [12] of 0.8927. For the same compound, the 50% inhibitory concentration (IC50) in [12] (read-out: Concurrent IC50) came to 44.5 nM. Moreover, in assay [12] (read-out: Concurrent Ki), the Ki was determined as 20.4 nM.
For `Fc1ccc2cc(-c3cnc(N4CCC(F)(F)CC4)nc3)[nH]c2c1` [Compound 23, 2-(2-(4,4-Difluoropiperidin-1-yl)pyrimidin-5-yl)-6-fluoro-1H-indole], the results for the Ki in [1] and in assay [2] were 23 nM and 37 nM, respectively.
Compound `Fc1ccc2cc(-c3cnc(N4CCCCC4)nc3)[nH]c2c1` [Compound 21, 6-Fluoro-2-(2-(piperidin-1-yl)pyrimidin-5-yl)-1H-indole] came in with a Ki in assay [6] of 49 nM.
Turning to `Fc1cc(-c2ccc3c(n2)[nH]c2ccncc23)ccn1` [Compound 2], the Ki in [7] (setting [15]) was found to be 3020 ± 283 nM; in assay [9] (setting [17]), 1970 ± 96 nM.
